Test results from article PMC5329948, “Caspase vinyl sulfone small molecule inhibitors prevent axonal degeneration in human neurons and reverse cognitive impairment in Caspase-6-overexpressing mice” (Molecular Neurodegeneration, 2017).

Biological target: T1, Casp6 in serum-deprived primary human neurons (Homo sapiens, UniProt P55212)
T1 construct: endogenous in cells; host or cells: primary human CNS neurons from cortical tissue, serum-deprived
Assay: Casp6 activity in serum-deprived primary human neurons (VEIDase, FLICA, TubΔCasp6)
Assay type: cell-based
Conditions: 100 μM
Experimental: HCT116: Human colon carcinoma (HCT116) cells (ATCC, Manassas, VA, USA) were cultured in McCoy’s 5A modified media (Thermo Fisher Scientific, Waltham, MA, USA) supplemented with 10% fetal bovine serum (Thermo Fisher Scientific, Waltham, MA, USA) and transfected with 1 μg of pCep4βCasp6p20p10 mixed with 8 μg of polyethyleneimine (Polysciences Inc., Warrington, PA, USA). Protein expression was allowed for 24 h before treating with vehicle (PBS), 100 μM NWL-117, or 100 μM NWL-154 for 2 h. For NWL inhibitor kinetic experiments, 100 μM of NWL-117 or NWL-154 was added at 120, 90, 60, 30, 15, or 0 min before harvest. […]
Recombinant or extracted cellular Casp6 activity: Casp6 activity was assessed by in vitro fluorogenic assays using Ac-Val-Glu-Ile-Asp-(7-Amino-4-trifluoromethylcouramin) (Ac-VEID-AFC: Enzo LifeSciences, NY, USA) as the Casp6 substrate. The activity was measured in Stennicke’s buffer (SB) (20 mM piperazine-N, N-bis (2-ethanesulfonic acid) (PIPES: BioShop Canada Inc, Burlington, Ontario, CA) pH 7.2, 30 mM NaCl, 1 mM ethylenediaminetetraacetic acid (EDTA), 0.1% 3-[(3-cholamidopropyl)-dimethylammonio]-2-hydroxy-1-propanesulfonic acid (CHAPS), 10% sucrose). […] Fluorescence units were converted to the moles of AFC released based on a standard curve of 0–625 picomoles of free AFC. Cleavage rates were calculated from the linear phase of the assay. […]

T1 sequence (P55212 24-293): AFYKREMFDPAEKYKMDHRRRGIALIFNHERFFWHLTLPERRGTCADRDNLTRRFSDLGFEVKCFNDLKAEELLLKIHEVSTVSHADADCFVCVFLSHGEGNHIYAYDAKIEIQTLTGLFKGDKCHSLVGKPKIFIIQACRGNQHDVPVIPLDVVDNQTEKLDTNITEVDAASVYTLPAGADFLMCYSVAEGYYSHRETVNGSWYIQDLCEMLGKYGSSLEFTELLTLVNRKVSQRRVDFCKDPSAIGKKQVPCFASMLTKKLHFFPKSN

## CCC(C)[C@H](NC(=O)[C@H](CCC(=O)O)NC(=O)[C@@H](NC(=O)OCc1ccccc1)C(C)C)C(=O)N[C@H](/C=C/S(C)(=O)=O)CC(=O)O (some centres unmarked) [NWL-117]
  Casp6 fluorogenic and FLICA-measured activity and TubΔCasp6: decreased

## CCC(C)[C@H](NC(=O)[C@H](CCC(=O)O)NC(=O)[C@@H](NC(=O)OCc1ccccc1)C(C)C)C(=O)N[C@H](/C=C(\Cl)S(C)(=O)=O)CC(=O)O (some centres unmarked) [NWL-154]
  Casp6 fluorogenic and FLICA-measured activity and TubΔCasp6: decreased
